This experiment addresses T1, recombinant human liver GK (Homo sapiens, UniProt P35557).
T1 construct: made in house; host or cells: E. coli
T1 sequence (P35557 1-466 isoform P35557-2): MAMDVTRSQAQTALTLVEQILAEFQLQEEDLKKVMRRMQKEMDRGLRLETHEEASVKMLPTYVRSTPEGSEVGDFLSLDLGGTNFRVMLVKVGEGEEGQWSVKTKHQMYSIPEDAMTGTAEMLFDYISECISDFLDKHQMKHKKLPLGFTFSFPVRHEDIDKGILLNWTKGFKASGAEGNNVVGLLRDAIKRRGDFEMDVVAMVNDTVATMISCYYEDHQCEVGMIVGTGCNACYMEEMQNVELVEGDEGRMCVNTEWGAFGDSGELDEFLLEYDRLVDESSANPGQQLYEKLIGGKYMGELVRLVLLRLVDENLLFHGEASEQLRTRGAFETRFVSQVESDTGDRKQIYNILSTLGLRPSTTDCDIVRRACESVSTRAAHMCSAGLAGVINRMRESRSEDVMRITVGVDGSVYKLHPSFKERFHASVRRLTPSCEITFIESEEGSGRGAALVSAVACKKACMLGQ
Briefly: Glucokinase (GK) activation assay, G6PDH-coupled thio-NADH absorbance at 405 nm. Format: biochemical. How it is done:
The glucokinase activity is the degree of activation of glucokinase, as determined not by direct measurement of glucose-6-phosphate, but by measurement of the amount of thio-NADH produced upon production of phosphogluconolactone from glucose-6-phosphate by the reporter enzyme glucose-6-phosphate dehydrogenase.
The recombinant human liver GK used in this assay was expressed in E. coli as FLAG fusion protein, and it was purified by […] M2 AFFINITY GEL (Sigma).
The assay was carried out using a flat-bottomed 96-well plate at 30° C. A 69 μl portion of assay buffer (25 mM Hepes Buffer: pH=7.2, 2 mM MgCl2, 1 mM ATP, 0.5 mM TNAD, 1 mM dithiothreitol) was dispensed, and either a DMSO solution of the compound or 1 μl of DMSO as a control was added. Next, 20 μl of an enzyme mixture (FLAG-GK, 20 U/ml G6PDH) precooled in ice bath was dispensed, and then 10 μl of 25 mM glucose was added as substrate and reaction was initiated (final glucose concentration=2.5 mM).
FLAG-GK was added to produce an absorbance increment of from 0.05 to 0.1 after 5 minutes in the presence of 1% DMSO.
The OD values were measured at each concentration of the evaluated compound, using the OD value of the DMSO control as 100%. The Emax (%) and EC50 (μM) values were calculated from the OD value at each concentration, and used as indices of the GK activating power of the compounds.

The mark [1] stands for this setting: final glucose concentration 2.5 mM, 30° C.

Like-named read-outs stand apart in the source and are kept apart here.

Take `Cc1csc(NC(=O)c2cc(Oc3ccc(S(C)(=O)=O)cc3)cc(OC(C)C)c2)n1` [Production Example 1, 5-isopropoxy-3-(4-methanesulfonylphenoxy)-N-(4-methylthiazol-2-yl)-benzamide]: the Emax (in general, the size of the effect at its maximum, as opposed to the concentration needed) was 957%. The EC50 (in general, the concentration that produces a half-maximal response) under setting [1] stood at 250 nM.

Take `COC(=O)NCc1ccc(Oc2cc(OC(C)C)cc(C(=O)Nc3nccs3)c2)cc1` [Production Example 59, 5-isopropoxy-3-(4-methoxycarbonylaminomethylphenoxy)-N-thiazol-2-yl-benzamide]: for the setting “OD value of DMSO control as 100%, final glucose concentration 2.5 mM, 30° C., read-out: Emax(%)”, the maximum response (Emax) stood at 936%. The EC50 under setting [1] turned out to be 530 nM.

Values taken from patent US7754743B2, “Heteroarylcarbamoylbenzene derivatives” (Banyu Pharmaceutical Co., Ltd., priority 2003, dated 2010).
